“Also recorded” adds a separate entry of the source. Where two headings read alike, the source gives them in different places.
System: postsynaptic QUIS-R of locust leg muscle
Experiment: Antagonism of neurally-evoked twitch contraction of locust retractor unguis nerve-muscle preparation
Design: species or system Schistocerca gregaria
Details: for IC50: read-out: IC50
Description: Electrophysiological studies. The metathoracic retractor unguis nerve-muscle preparation of the locust Schistocerca gregaria was dissected and mounted in a small Perspex bath as described previously (21). The pharmacological activity on the locust nerve muscle preparation, using reduction in neurally evoked twitch amplitude as the measure of activity. Ten fractions were pharmacologically active. […] Further purification of this fraction by reverse-phase HPLC gave four peaks (FIG. 2B), the most pharmacologically was in the major peak (hatched FIG. 2B) . This fraction gave 1.1 mg of toxin as amorphous powder.
The retractor unguis muscle and its nerve were dissected from the metathoracic legs of adult, female locusts (Schistocerca gregaria) and mounted in a Perspex perfusion chamber as described by Usherwood and Machili (21) and Bateman, et al. (14). The muscle was stretched to maximal body length and attached at its tendon or apodeme to a Grass FT 10-strain gauge by a short length of nylon thread. The volume of the muscle bath was about 0.5 ml and its contents could be exchanged within 1 sec. The preparation was perfused continuously at the rate of 5-10 ml min^-1 (except during the application of toxin (see below)) with standard locust saline of the following composition (mM): NaCl, 180; KCl, 10; CaCl2, 2; Hepes, 10; buffered to pH 6.8. The retractor unguis muscle is innervated by two excitatory motoneurons (30) and an inhibitory motoneuron (19,32), but the influence of the latter on the responsiveness of the muscle is slight. Maximal stimulation of the retractor unguis nerve at 0.2 Hz produced a series of twitch contractions of constant amplitude, which were maintained for many hours in good preparations. The test compounds were kept at -20° C. They were dissolved in locust saline on the day of the assay and tested at room temperature. The compounds were applied by pipette to a nerve-muscle preparation such that the contents of the perfusion bath were completely replaced by the test solution. Exposure to the test compound lasted 20 min. Because of the limited availability of some of the compounds, the preparation was not perfused during this period. However, the amplitude of the retractor unguis muscle twitch rarely changed by more than 5-10% over a 20 minute period. During application of the test solutions the stimulation frequency was raised to 0.6 Hz for brief periods to test for stimulus frequency-dependent effects on twitch amplitude (31,37). Dose-inhibition data were obtained by testing the effects, on single retractor unguis muscle preparations, of a range of concentrations of the test compounds. Each concentration of the respective samples was tested at least thee times, and each compound was assayed usually over a 100-fold concentration range (a total of 7-10 concentrations). The standard deviations for twitch inhibition for any given concentration of a toxin rarely exceed 10%. Those compounds for which the deviation was greater than this are identified in Tables 1-7. There was some variation in the potency of PhTX-343 and the test compounds between nerve-muscle preparations. In order to compensate for this, the following procedure was adopted: PhTX-343 was assayed at a variety of concentrations on eight retractor unguis nerve-muscle preparations to give a cumulative dose-inhibition relationship for this toxin. The concentration of PhTX-343 which reduced the twitch contraction by 50% (IC50) was then determined by fitting a curve to the data using the following equation: [formula] where: [T]= toxin concentration, I= % inhibition, Imax =maximum inhibition= 100% and n' represents the Hill slope coefficient. […] The ratio of the actual reduction in twitch amplitude obtained with this single concentration of PhTX-343 and the 50% reduction that was anticipated from the cumulative dose-inhibition relationship for this toxin, was then used as a factor to normalize the data for the test compound. […]

[1] = Table 1, region A modifications, 20 min exposure, normalized with PhTX-343, ** SD < 30%
[2] = Table 1, relative to PhTX-343 = 1.0
[3] = Table 2, region B modifications, * SD < 20%
[4] = Table 2, relative to PhTX-343 = 1.0
[5] = Table 3, region C modifications
[6] = Table 3, relative to PhTX-343 = 1.0
[7] = Table 4, terminal amino group modifications, * SD < 20%
[8] = Table 4, relative to PhTX-343 = 1.0

SMILES: CCCC(=O)N[C@@H](Cc1cc(I)c(O)c(I)c1)C(=O)NCCCNCCCCNCCCNC(=O)[C@@H](N)CCCNC(=N)N [Compound 39, diiodo-PhTX-arginine]
- potency compared with PhTX-343 or other analogues (in words): more potent than PhTX-343

SMILES: [N-]=[N+]=Nc1ccc(C(=O)N[C@@H](Cc2ccc(O)cc2)C(=O)NCCCNCCCCNCCCNC(=O)[C@@H](N)CCCCN)cc1 [Compound 40, N-(p-azidobenzamide)-L-tyrosyl-spermine-L-lysine-triamide]
- IC50 (Table 5, modifications to more than one region): 3.3 µM
- Relative Potency (Table 5, relative to PhTX-343): 7

SMILES: [N-]=[N+]=Nc1ccc(C(=O)N[C@@H](Cc2cc(I)c(O)c(I)c2)C(=O)NCCCNCCCCNCCCNC(=O)[C@@H](N)CCCCN)cc1 [Compound 41, N- (.rho.-azidobenzamide)-di-iodo-L-tyrosyl-spermine-L-lysine-triamide]
- potency compared with PhTX-343 or other analogues (in words): more potent than the latter

SMILES: CCCCCCC(=O)NCCCNCCCCNCCCN [Compound 48, Heptanoylspermine-amide]
- potency compared with PhTX-343 or other analogues (in words): low potencies

SMILES: CCCC(=O)NCCCNCCCCNCCCNC(=O)CCC [Compound 50]
- potency compared with PhTX-343 or other analogues (in words): low potencies
- IC50 (Table 7, bis-acyl spermine analogues): 2300 µM
- Relative Potency (Table 7, bis-acyl spermine analogues, relative to PhTX-343): 0.1

SMILES: CCCCCCCCCC(=O)NCCCNCCCCNCCCNC(=O)CCCCCCCCC [Compound 52, bis-C10 -spermine]
- potency compared with PhTX-343 or other analogues (in words): as active as PhTX-343; also recorded: relatively high potencies

SMILES: CCCC(=O)N[C@@H](Cc1ccc(O)cc1)C(=O)NCCCNCCCCNCCCN [drawing 21]
- IC50 [1]: 23 µM
- Relative Potency [2]: 1.0

SMILES: CCCC(=O)N[C@@H](Cc1ccc(O)cc1)C(=O)NCCCCNCCCNCCCN [drawing 22]
- IC50 [1]: 18 µM
- Relative Potency [2]: 1.3

SMILES: CCCC(=O)N[C@@H](Cc1ccc(O)cc1)C(=O)NCCCNCCCNCCCCN [drawing 23]
- IC50 [1]: 15 µM
- Relative Potency [2]: 1.5

SMILES: CCCC(=O)N[C@@H](Cc1ccc(O)cc1)C(=O)NCCCCNCCCN [drawing 24]
- IC50 [1]: 39 µM
- Relative Potency [2]: 0.6

SMILES: CCCC(=O)N[C@@H](Cc1ccc(O)cc1)C(=O)NCCCCN [drawing 25]
- IC50 [1]: 2000 µM
- Relative Potency [2]: 0.01

SMILES: CCCC(=O)N[C@@H](Cc1ccc(O)cc1)C(N)=O [drawing 26]
- IC50 [1]: 500 µM
- Relative Potency [2]: 0.05

SMILES: CCCC(=O)N[C@@H](Cc1ccc(O)cc1)C(=O)NCCCCNCC(C)CNCCCN (stereo partly shown) [drawing 27]
- IC50 [1]: 40 µM
- Relative Potency [2]: 0.6

SMILES: CCCCC(CNCCCN)CNCCCCNC(=O)[C@H](Cc1ccc(O)cc1)NC(=O)CCC (stereo partly shown) [drawing 28]
- IC50 [1]: 4 µM
- Relative Potency [2]: 5.6

SMILES: CCCC(=O)N[C@@H](Cc1ccc(O)cc1)C(=O)NCCC[N+](C)(C)CCCC[N+](C)(C)CCC[N+](C)(C)C [drawing 29]
- IC50 [1]: 130 µM
- Relative Potency [2]: 0.2

SMILES: CCCC(=O)N[C@@H](Cc1ccc(O)cc1)C(=O)NCCCNCCCCNCCCN [drawing 31]
- IC50 [3]: 23 µM
- Relative Potency [4]: 1.0

SMILES: CCCC(=O)N[C@@H](Cc1ccc(OC(C)=O)cc1)C(=O)NCCCNCCCCNCCCN [drawing 33]
- IC50 [3]: 33 µM
- Relative Potency [4]: 0.7

SMILES: CCCC(=O)N[C@@H](Cc1ccc(OCc2ccccc2)cc1)C(=O)NCCCNCCCCNCCCN [drawing 34]
- IC50 [3]: 24 µM
- Relative Potency [4]: 1.0

SMILES: CCCC(=O)N[C@@H](Cc1cc(I)c(O)c(I)c1)C(=O)NCCCNCCCCNCCCN [drawing 35]
- IC50 [3]: 5.3 µM
- Relative Potency [4]: 4.4

SMILES: CCCC(=O)N[C@@H](CC(C)C)C(=O)NCCCNCCCCNCCCN [drawing 36]
- IC50 [3]: 23 µM
- Relative Potency [4]: 1.0

SMILES: CCCC(=O)N[C@@H](C)C(=O)NCCCNCCCCNCCCN [drawing 37]
- IC50 [3]: 45 µM
- Relative Potency [4]: 0.5

SMILES: CCCC(=O)NCC(=O)NCCCNCCCCNCCCN [drawing 38]
- IC50 [3]: 130 µM
- Relative Potency [4]: 0.2

SMILES: CCCC(=O)N[C@@H](Cc1c[nH]c2ccccc12)C(=O)NCCCNCCCCNCCCN [drawing 39]
- IC50 [3]: 2.5 µM
- Relative Potency [4]: 9.2

SMILES: CCCC(=O)N[C@@H](Cc1ccc(O)cc1)C(=O)NCCCNCCCCNCCCN [drawing 41]
- IC50 [5]: 23 µM
- Relative Potency [6]: 1.0

SMILES: CC(=O)N[C@@H](Cc1ccc(O)cc1)C(=O)NCCCNCCCCNCCCN [drawing 42]
- IC50 [5]: 50 µM
- Relative Potency [6]: 0.7

SMILES: CCCCCCC(=O)N[C@@H](Cc1ccc(O)cc1)C(=O)NCCCNCCCCNCCCN [drawing 43]
- IC50 [5]: 10 µM
- Relative Potency [6]: 2.7

SMILES: C/C=C/C=C/C(=O)N[C@@H](Cc1ccc(O)cc1)C(=O)NCCCNCCCCNCCCN [drawing 45]
- IC50 [5]: 1.6 µM
- Relative Potency [6]: 14.0

SMILES: NCCCNCCCCNCCCNC(=O)[C@H](Cc1ccc(O)cc1)NC(=O)C1CCCCC1 [drawing 46]
- IC50 [5]: 9.3 µM
- Relative Potency [6]: 2.5

SMILES: NCCCNCCCCNCCCNC(=O)[C@H](Cc1ccc(O)cc1)NC(=O)c1ccccc1 [drawing 47]
- IC50 [5]: 2.83 µM
- Relative Potency [6]: 8.2

SMILES: NCCCNCCCCNCCCNC(=O)[C@H](Cc1ccc(O)cc1)NC(=O)Cc1ccccc1 [drawing 48]
- IC50 [5]: 12 µM
- Relative Potency [6]: 0.5

SMILES: NCCCNCCCCNCCCNC(=O)[C@H](Cc1ccc(O)cc1)NC(=O)/C=C/c1ccccc1 [drawing 49]
- IC50 [5]: 2 µM
- Relative Potency [6]: 12.0

SMILES: [N-]=[N+]=Nc1ccc(C(=O)N[C@@H](Cc2ccc(O)cc2)C(=O)NCCCNCCCCNCCCN)cc1 [drawing 50]
- IC50 [5]: 4.2 µM
- Relative Potency [6]: 5.5

SMILES: [N-]=[N+]=C(C(=O)NCCCC(=O)N[C@@H](Cc1ccc(O)cc1)C(=O)NCCCNCCCCNCCCN)C(F)(F)F [drawing 51]
- IC50 [5]: 290 µM
- Relative Potency [6]: 0.1

SMILES: CCCC(=O)N[C@@H](Cc1ccc(O)cc1)C(=O)NCCCNCCCCNCCCN [drawing 57]
- IC50 [7]: 23 µM
- Relative Potency [8]: 1.0

SMILES: CCCC(=O)N[C@@H](Cc1ccc(O)cc1)C(=O)NCCCNCCCCNCCCNC(C)=O [drawing 58]
- IC50 [7]: 300 µM
- Relative Potency [8]: 0.08

SMILES: CCCC(=O)N[C@@H](Cc1ccc(O)cc1)C(=O)NCCCNCCCCNCCCNC(=O)CN [drawing 59]
- IC50 [7]: 100 µM
- Relative Potency [8]: 0.2

SMILES: CCCC(=O)N[C@@H](Cc1ccc(O)cc1)C(=O)NCCCNCCCCNCCCNC(=O)CCCN [drawing 60]
- IC50 [7]: 68 µM
- Relative Potency [8]: 0.3

SMILES: CCCC(=O)N[C@@H](Cc1ccc(O)cc1)C(=O)NCCCNCCCCNCCCNC(=O)C(N)CCCCN (stereo partly shown) [drawing 61]
- IC50 [7]: 13 µM
- Relative Potency [8]: 1.8

Reference: patent US5770625A, “Butyryl-tyrosinyl spermine, analogs thereof and methods of preparing and using same” (priority 1994, dated 1998)
